From ChEMBL document CHEMBL4627340, “Design, synthesis, and biological activity of new endomorphin analogs with multi-site modifications” (Bioorg Med Chem, 2020)
Activity calls are given as the source filed them. No cut-off for these calls is given here.

Assays:
[1] = molecular target: Delta-type opioid receptor (Rattus norvegicus, UniProt P33533); assay: Displacement of [3H]-DPDPE from Wistar rat delta opioid receptor incubated for 3 hrs by liquid scintillation counting method
Mu-type opioid receptor [2] = molecular target: T1, Mu-type opioid receptor (Homo sapiens, UniProt P35372); assay: Agonist activity at mu opioid receptor (unknown origin) expressed in human HEK293 cells assessed as […] in cAMP accumulation using [3H]-cAMP as substrate measured after 30mins by liquid scintillation counting method relative to control; type: functional, cell-based
Mu-type opioid receptor [3] = molecular target: T1, Mu-type opioid receptor; assay: Agonist activity at mu opioid receptor (unknown origin) expressed in human HEK293 cells assessed as […] in cAMP accumulation using [3H]-cAMP as substrate measured after 30mins by liquid scintillation counting method; type: functional, cell-based
Mu-type opioid receptor [4] = molecular target: Mu-type opioid receptor (Rattus norvegicus, UniProt P33535); assay: Displacement of [3H]-DAMGO from Wistar rat mu opioid receptor incubated for 1 hr by liquid scintillation counting method
[5] = Toxicity in kunming mouse assessed as reduction in number of fecal pellet at 1 to 10 mg/kg, iv after 1 hr; type: organism-based; details: in vivo
Mus musculus [6] = assay: Antinociceptive activity in kunming mouse models assessed as effective dose after icv administration measured from 5 to 60 mins by warm water tail-flick assay; type: functional
Mus musculus [7] = assay: Antinociceptive activity in icv administered kunming mouse models of formalin-induced hyperalgesia assessed reduction in time spent on paw biting during inflammatory phase 2 at 15 to 30 mins; type: functional; parameters: scale not given: the % may be the effect or the level left
Mus musculus [8] = assay: Antinociceptive activity in icv administered kunming mouse models of formalin-induced hyperalgesia assessed reduction in pain response of paw licking during inflammatory phase 2 at 15 to 30 mins; type: functional, organism-based
Mus musculus [9] = assay: Antinociceptive activity in kunming mouse models assessed as maximum possible effect at 0.4 nmol, icv measured from 5 to 60 mins by warm water tail-flick assay relative to control; type: functional
Mus musculus [10] = assay: Antinociceptive activity in kunming mouse models assessed as effective dose after iv administration by warm water tail-flick assay; type: functional
Mus musculus [11] = assay: Antinociceptive activity in kunming mouse models of formalin-induced hyperalgesia assessed as reduction in time spent on paw shaking inflammatory phase at 4 nmol, icv measured during phase 2 at 15 to 30 mins relative to control; type: functional; parameters: scale not given: the % may be the effect or the level left
[12] = Toxicity in kunming mouse assessed as reduction in fecal dry weight at 1 to 10 mg/kg, iv after 1 hr; type: organism-based; details: in vivo
Mus musculus [13] = assay: Antinociceptive activity in kunming mouse models of formalin-induced hyperalgesia assessed as reduction in pain response of paw licking inflammatory phase at 0.04 nmol, icv measured during phase 1 at 0 to 5 mins relative to control; type: functional; parameters: scale not given: the % may be the effect or the level left
Mus musculus [14] = assay: Antinociceptive activity in kunming mouse models of formalin-induced hyperalgesia assessed as reduction in time spent on paw biting inflammatory phase at 4 nmol, icv measured during phase 1 at 0 to 5 mins relative to control; type: functional; parameters: scale not given: the % may be the effect or the level left
Mus musculus [15] = assay: Antinociceptive activity in kunming mouse models of formalin-induced hyperalgesia assessed as reduction in time spent on paw biting inflammatory phase at 4 nmol, icv measured during phase 2 at 15 to 30 mins relative to control; type: functional; parameters: scale not given: the % may be the effect or the level left
Mus musculus [16] = assay: Antinociceptive activity in kunming mouse models assessed as maximum possible effect at 10 mg/kg, iv measured after 5 to 60 mins co-treated with naloxone by warm water tail-flick assay; type: functional, organism-based
Mus musculus [17] = assay: Antinociceptive activity in kunming mouse models assessed as maximum possible effect at 3 mg/kg, iv measured after 5 to 60 mins by warm water tail-flick assay; type: functional
Mus musculus [18] = assay: Antinociceptive activity in kunming mouse models of formalin-induced hyperalgesia assessed as reduction in time spent on paw biting inflammatory phase at 0.04 nmol, icv measured during phase 1 at 0 to 5 mins relative to control; type: functional; parameters: scale not given: the % may be the effect or the level left
Mus musculus [19] = assay: Antinociceptive activity in kunming mouse models of formalin-induced hyperalgesia assessed as reduction in time spent on paw shaking inflammatory phase at 0.04 nmol, icv measured during phase 1 at 0 to 5 mins relative to control; type: functional; parameters: scale not given: the % may be the effect or the level left
Mus musculus [20] = assay: Antinociceptive activity in kunming mouse models of formalin-induced hyperalgesia assessed as reduction in time spent on paw shaking inflammatory phase at 4 nmol, icv measured during phase 1 at 0 to 5 mins relative to control; type: functional; parameters: scale not given: the % may be the effect or the level left
Mus musculus [21] = assay: Antinociceptive activity in kunming mouse models of formalin-induced hyperalgesia assessed as reduction in pain response of paw licking inflammatory phase at 4 nmol, icv measured during phase 2 at 15 to 30 mins relative to control; type: functional; parameters: scale not given: the % may be the effect or the level left
[22] = Neurotoxicity in kunming mouse models assessed as effect in locomotor activity at 10 mg/kg,iv measured up to 60 mins by rotarod test; type: toxicity, organism-based; details: in vivo, 1 h
Mus musculus [23] = assay: Antinociceptive activity in iv dosed kunming mouse models of formalin-induced hyperalgesia assessed as reduction in pain response of paw licking measured up to 60 mins; type: functional, organism-based
Mus musculus [24] = assay: Antinociceptive activity in icv administered kunming mouse models of formalin-induced hyperalgesia assessed reduction in time spent on paw shaking during inflammatory phase 2 at 15 to 30 mins; type: functional; parameters: scale not given: the % may be the effect or the level left
Mus musculus [25] = assay: Antinociceptive activity in kunming mouse models of formalin-induced hyperalgesia assessed as reduction in pain response of paw licking inflammatory phase at 4 nmol, icv measured during phase 1 at 0 to 5 mins relative to control; type: functional; parameters: scale not given: the % may be the effect or the level left
[26] = Half life in Kunming mouse brain homogenate at 10^-2 mol/L by RP-HPLC analysis; type: ADME, tissue-based
Mus musculus [27] = assay: Antinociceptive activity in kunming mouse models of acetic-acid-induced writhing assessed as inhibition of writhing numbers at 3 mg/kg, iv pretreated for 5 mins followed by acetic-acid treatment and measured for 20 mins; type: functional, organism-based
[28] = Half life in Kunming mouse serum at 10^-2 mol/L by RP-HPLC analysis; type: ADME, cell-free
Mus musculus [29] = assay: Antinociceptive activity in kunming mouse models of acetic-acid-induced writhing assessed as inhibition of writhing numbers at 0.04 nmol, icv pretreated for 5 mins followed by acetic-acid treatment and measured for 20 mins relative to control; type: functional; parameters: scale not given: the % may be the effect or the level left
Mus musculus [30] = assay: Antinociceptive activity in kunming mouse models assessed as maximum possible effect at 4 nmol, icv measured from 5 to 60 mins by warm water tail-flick assay relative to control; type: functional

T1 sequence (P35372 whole entry): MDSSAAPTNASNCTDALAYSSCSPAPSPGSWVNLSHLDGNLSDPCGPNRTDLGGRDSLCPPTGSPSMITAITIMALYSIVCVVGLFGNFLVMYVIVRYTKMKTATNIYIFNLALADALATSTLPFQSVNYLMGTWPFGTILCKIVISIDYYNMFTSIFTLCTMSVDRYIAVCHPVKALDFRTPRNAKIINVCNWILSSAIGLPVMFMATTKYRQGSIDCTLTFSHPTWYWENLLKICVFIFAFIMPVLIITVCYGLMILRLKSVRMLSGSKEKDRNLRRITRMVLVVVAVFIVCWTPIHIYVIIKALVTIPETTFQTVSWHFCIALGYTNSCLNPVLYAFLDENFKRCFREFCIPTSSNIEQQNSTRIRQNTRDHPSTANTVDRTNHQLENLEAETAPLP
Chain of Delta-type opioid receptor (P33533 whole entry): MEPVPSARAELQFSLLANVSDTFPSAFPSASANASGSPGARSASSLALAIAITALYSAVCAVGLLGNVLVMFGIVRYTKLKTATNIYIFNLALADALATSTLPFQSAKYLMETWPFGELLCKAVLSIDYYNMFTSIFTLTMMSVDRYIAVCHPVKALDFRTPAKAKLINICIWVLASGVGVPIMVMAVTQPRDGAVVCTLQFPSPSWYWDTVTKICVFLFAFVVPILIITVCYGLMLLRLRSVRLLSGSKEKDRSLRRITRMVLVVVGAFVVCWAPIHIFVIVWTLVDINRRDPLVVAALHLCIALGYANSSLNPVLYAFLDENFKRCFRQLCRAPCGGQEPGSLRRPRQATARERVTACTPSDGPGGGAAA
Chain of Mu-type opioid receptor (Rattus norvegicus, UniProt P33535) (P33535 whole entry): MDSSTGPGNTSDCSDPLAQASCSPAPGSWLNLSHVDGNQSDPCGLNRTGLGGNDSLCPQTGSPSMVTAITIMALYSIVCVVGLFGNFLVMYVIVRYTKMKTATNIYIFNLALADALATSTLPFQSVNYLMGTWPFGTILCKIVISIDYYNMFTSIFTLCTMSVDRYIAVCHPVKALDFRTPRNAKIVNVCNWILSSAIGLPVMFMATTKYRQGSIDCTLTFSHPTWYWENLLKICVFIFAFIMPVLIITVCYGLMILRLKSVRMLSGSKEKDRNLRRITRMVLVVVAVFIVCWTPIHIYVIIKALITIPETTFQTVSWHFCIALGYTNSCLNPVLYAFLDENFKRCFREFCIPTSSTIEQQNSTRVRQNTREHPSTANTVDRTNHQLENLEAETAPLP

For `C=C(C(N)=O)[C@@H](NC(=O)[C@H](Cc1ccccc1)NC(=O)[C@@H](CNC(C)=O)NC(=O)[C@@H](N)Cc1ccc(O)cc1)c1ccco1`, the Ki [1] was > 10000 nM, the Emax (Mu-type opioid receptor [2]) was 78.2% and the EC50 (Mu-type opioid receptor [3]) was 1360 nM. The Ki (Mu-type opioid receptor [4]) was 22.4 nM.

With `C=C(C(N)=O)[C@@H](NC(=O)[C@H](Cc1c[nH]c2ccccc12)NC(=O)[C@@H](CCCCNC(=N)N)NC(=O)[C@@H](N)Cc1ccc(O)cc1)c1ccco1` the Ki [1] was > 10000 nM, the Emax (Mu-type opioid receptor [2]) was 76.5% and the EC50 (Mu-type opioid receptor [3]) was 341 nM. It also gave a Ki (Mu-type opioid receptor [4]) of 405 nM.

For `C=C(C(N)=O)[C@@H](NC(=O)[C@H](Cc1c[nH]c2ccccc12)NC(=O)[C@@H](CCN)NC(=O)[C@@H](N)Cc1ccc(O)cc1)c1ccco1`, the Ki [1] was > 10000 nM, the Emax (Mu-type opioid receptor [2]) was 75.5% and the EC50 (Mu-type opioid receptor [3]) was 161 nM. The Ki (Mu-type opioid receptor [4]) was 32.4 nM.

In the case of `C=C(C(N)=O)[C@@H](NC(=O)[C@H](Cc1c[nH]c2ccccc12)NC(=O)[C@@H](CCCCN)NC(=O)[C@@H](N)Cc1ccc(O)cc1)c1ccco1`, the Ki [1] is reported as > 10000 nM, the Emax (Mu-type opioid receptor [2]) is reported as 65.8% and the EC50 (Mu-type opioid receptor [3]) is reported as 1130 nM. It also gave a Ki (Mu-type opioid receptor [4]) of 172 nM.

In the case of `C=C(C(N)=O)[C@@H](NC(=O)[C@H](Cc1c[nH]c2ccccc12)NC(=O)[C@@H](CCCNC(N)=O)NC(=O)[C@@H](N)Cc1ccc(O)cc1)c1ccco1`, the Activity [5] is reported as “Toxic”, the ED50 (Mus musculus [6]) is reported as 0.037 nmol and the Ki [1] is reported as > 10000 nM. The Activity (Mus musculus [7]) was 100%, the Emax (Mu-type opioid receptor [2]) was 78.9% and the Activity (Mus musculus [8]) was “Dose-dependent effect”. It also gave an MPE (Mus musculus [9]) of 100%, an ED50 (Mus musculus [10]) of 2.59 nmol and an Activity (Mus musculus [11]) of 100%. The Activity [12] was “Toxic”, the EC50 (Mu-type opioid receptor [3]) was 164 nM and the Ki (Mu-type opioid receptor [4]) was 5.82 nM. For the same compound, the Activity (Mus musculus [13]) was 100%, the Activity (Mus musculus [14]) was 100% and the Activity (Mus musculus [15]) was 100%. The Activity (Mus musculus [16]) was “inactive”, the MPE (Mus musculus [17]) was 51.2% and the Activity (Mus musculus [18]) was 100%. For the same compound, the Activity (Mus musculus [19]) was 100%, the Activity (Mus musculus [20]) was 100% and the Activity (Mus musculus [21]) was 100%. The Activity [22] was “Non-Toxic”, the Activity (Mus musculus [23]) was “Dose-dependent effect” and the Activity (Mus musculus [24]) was 100%. The Activity (Mus musculus [25]) was 100%, the half-life [26] was > 5 h and the Activity (Mus musculus [27]) was “Active”. The half-life [28] was > 5 h, the Activity (Mus musculus [29]) was 100% and the Activity (Mus musculus [30]) was 100%.

`C=C(C(N)=O)[C@@H](NC(=O)[C@H](Cc1c[nH]c2ccccc12)NC(=O)[C@@H](CCC)NC(=O)[C@@H](N)Cc1ccc(O)cc1)c1ccco1` gave a Ki [1] of 2660 nM, an Emax (Mu-type opioid receptor [2]) of 67.6% and an EC50 (Mu-type opioid receptor [3]) of 337 nM. For the same compound, the Ki (Mu-type opioid receptor [4]) was 34.4 nM.

`C=C(C(N)=O)[C@@H](NC(=O)[C@H](Cc1c[nH]c2ccccc12)NC(=O)[C@@H](CCCCNC(C)=O)NC(=O)[C@@H](N)Cc1ccc(O)cc1)c1ccco1` gave a Ki [1] of 3580 nM, an Emax (Mu-type opioid receptor [2]) of 37.5% and an EC50 (Mu-type opioid receptor [3]) of 934 nM. The Ki (Mu-type opioid receptor [4]) was 9.21 nM.

With `C=C(C(N)=O)[C@@H](NC(=O)[C@H](Cc1c[nH]c2ccccc12)NC(=O)[C@@H](CN)NC(=O)[C@@H](N)Cc1ccc(O)cc1)c1ccco1` the Ki [1] was > 10000 nM, the Emax (Mu-type opioid receptor [2]) was 81.5% and the EC50 (Mu-type opioid receptor [3]) was 192 nM. The Ki (Mu-type opioid receptor [4]) was 5.47 nM.

In the case of `C=C(C(N)=O)[C@@H](NC(=O)[C@H](Cc1ccccc1)NC(=O)[C@@H](CCCNC(=N)N)NC(=O)[C@@H](N)Cc1ccc(O)cc1)c1ccco1`, the ED50 (Mus musculus [6]) is reported as 0.054 nmol, the Ki [1] is reported as 922 nM and the Emax (Mu-type opioid receptor [2]) is reported as 74.2%. For the same compound, the MPE (Mus musculus [9]) was 86.9%, the EC50 (Mu-type opioid receptor [3]) was 370 nM and the Ki (Mu-type opioid receptor [4]) was 19.2 nM. For the same compound, the half-life [26] was > 5 h, the half-life [28] was > 5 h and the Activity (Mus musculus [30]) was 100%.
